Tests used:
[1] = tested on: pMAPK (Thr202/Tyr204) in MDA-MB453 or DMS 114 cells; experiment: Detection of pMAPK (Thr202/Tyr204) using Alpha ELISA (pERK alphaLISA); format: cell-based; conditions: 1 hr incubation with compound; cell line not given (MDA-MB453 or DMS 114)
Experimental: Detection of pMAPK (Thr202/Tyr204) Using Alpha ELISA
MDA-MB453 or DMS 114 cells were plated in 96-well cell culture plates at a density of 1×10^5 cells or 3×10^4 cells, respectively. Cells were allowed to attach, and growth media was replaced with serum free media. Compounds were added at the indicated concentrations. Following 1 hr incubation in the presence of compound, cells were collected. For the DMS 114 cells, 100 ng/mL FGF2 was added for 10 min prior to cell collection. Cell lysates were prepared and processed according to manufacturer instruction (AlphaScreen® SureFire™ Phospho-ERK 1/2 Kit (Perkin Elmer).

[2] = biological target: T1, wild type FGFR-4 (Homo sapiens, UniProt P22455); experiment: FGFR-4 wild type assay at Km (Caliper electrophoretic mobility shift); format: biochemical; conditions: wild type FGFR-4, 400 uM ATP, 25 C, 90 minutes; read-out: INH-FGFR4
T1 construct: purchased Carna Biosciences, Inc
Experimental: Biochemical Activity Assessment In order to assess the activity of chemical compounds against the relevant kinase of interest, the Caliper LifeSciences electrophoretic mobility shift technology platform is utilized. Fluorescently labeled substrate peptide is incubated in the presence dosed levels of compounds, a set concentration of kinase and of ATP, so that a reflective proportion of the peptide is phosphorylated. At the end of the reaction, the mix of phosphorylated (product) and non-phosphorylated (substrate) peptides are passed through the microfluidic system of the Caliper LabChip® EZ Reader II, under an applied potential difference. The presence of the phosphate group on the product peptide provides a difference in mass and charge between the product peptide and the substrate peptide, resulting in a separation of the substrate and product pools in the sample. As the pools pass the LEDS within the instrument, these pools are detected and resolved as separate peaks. The ratio between these peaks therefore reflects the activity of the chemical matter at that concentration in that well, under those conditions.
FGFR-4 wild type assay at Km: In each well of a 384-well plate, 0.5 ng/ul of wild type FGFR-4 (Carna Biosciences, Inc.) was incubated in a total of 12.5 ul of buffer (100 mM HEPES pH 7.5, 0.015% Brij 35, 10 mM MgCl2, 1 mM DTT) with 1 uM CSKtide (5-FAM-KKKKEEIYFFFG-NH2) and 400 uM ATP at 25 C for 90 minutes in the presence or absence of a dosed concentration series of compound (1% DMSO final concentration). The reaction was stopped by the addition of 70 ul of Stop buffer (100 mM HEPES pH 7.5, 0.015% Brij 35, 35 mM EDTA and 0.2% of Coating Reagent 3 (Caliper Lifesciences)). The plate was then read on a Caliper LabChip® EZ Reader II (protocol settings: −1.9 psi, upstream voltage −700, downstream voltage −3000, post sample sip 35 s).

T1 sequence (P22455 22-802): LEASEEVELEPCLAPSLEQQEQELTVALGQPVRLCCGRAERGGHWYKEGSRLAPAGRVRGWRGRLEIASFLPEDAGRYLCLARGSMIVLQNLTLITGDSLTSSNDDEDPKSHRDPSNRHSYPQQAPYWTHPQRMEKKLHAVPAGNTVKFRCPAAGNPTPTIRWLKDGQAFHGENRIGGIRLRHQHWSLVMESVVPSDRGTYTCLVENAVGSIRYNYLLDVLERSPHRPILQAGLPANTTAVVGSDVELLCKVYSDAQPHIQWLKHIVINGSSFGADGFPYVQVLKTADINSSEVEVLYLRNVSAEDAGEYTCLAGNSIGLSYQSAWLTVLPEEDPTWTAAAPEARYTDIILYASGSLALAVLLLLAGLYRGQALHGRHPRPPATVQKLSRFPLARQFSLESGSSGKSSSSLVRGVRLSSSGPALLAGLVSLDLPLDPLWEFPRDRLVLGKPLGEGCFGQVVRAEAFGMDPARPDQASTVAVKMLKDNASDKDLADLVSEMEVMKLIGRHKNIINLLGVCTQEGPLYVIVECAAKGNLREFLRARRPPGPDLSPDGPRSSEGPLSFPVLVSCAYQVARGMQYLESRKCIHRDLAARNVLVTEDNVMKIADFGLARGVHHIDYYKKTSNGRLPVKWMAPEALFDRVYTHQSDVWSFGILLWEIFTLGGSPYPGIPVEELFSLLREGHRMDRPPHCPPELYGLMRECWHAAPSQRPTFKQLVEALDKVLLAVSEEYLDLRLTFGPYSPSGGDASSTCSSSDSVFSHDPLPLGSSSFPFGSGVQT

| IC50 [1] | IC50 [2] | Structure (SMILES) |
| --- | --- | --- |
| 100 to 1000 nM | 10 to 100 nM | C=CC(=O)N[C@H]1CN(C(=O)CN)C[C@H]1Nc1ncc2cc(-c3c(Cl)c(OC)cc(OC)c3Cl)ccc2n1 (racemic) [Compound 74] |
| 100 to 1000 nM | 10 to 100 nM | C=CC(=O)N[C@H]1CN(C(=O)OC(C)(C)C)C[C@H]1Nc1ncc2cc(-c3c(Cl)c(OC)cc(OC)c3Cl)ccc2n1 (racemic) [Compound 90] |
| 10 to 100 nM | 10 to 100 nM | C=CC(=O)N[C@H]1CCC[C@H]1Nc1ncc2cc(-c3c(Cl)c(OC)cc(OC)c3Cl)ccc2n1 [Compound 24] |
| 100 to 1000 nM | 10 to 100 nM | C=CC(=O)N[C@@H]1COC[C@@H]1Nc1ncc2cc(-c3c(Cl)c(OC)cc(OC)c3Cl)ccc2n1 [Compound 26] |
| 10 to 100 nM | < 10 nM | C=CC(=O)NC1COCC1Nc1ncc2cc(-c3c(Cl)c(OC)cc(OC)c3Cl)ccc2n1 (stereo not drawn) [Compound 28] |
| < 10 nM | 10 to 100 nM | C=CC(=O)N[C@H]1COC[C@H]1Nc1ncc2cc(-c3c(Cl)c(OC)cc(OC)c3Cl)cnc2n1 [Compound 29] |
| < 10 nM | < 10 nM | C=CC(=O)N[C@H]1C[C@@H]2C[C@@H]2[C@H]1Nc1ncc2cc(-c3c(Cl)c(OC)cc(OC)c3Cl)ccc2n1 [Compound 32, N-((1S,2R,3S,5S)-2-((6-(2,6-dichloro-3,5-dimethoxyphenyl)quinazolin-2-yl)amino)bicyclo[3.1.0]hexan-3-yl)acrylamide] |
| 10 to 100 nM | 10 to 100 nM | C=CC(=O)N[C@H]1CCCC[C@H]1Nc1ncc2cc(-c3c(Cl)c(OC)cc(OC)c3Cl)ccc2n1 [Compound 34, N-((1S,2R)-2-((6-(2,6-dichloro-3,5-dimethoxyphenyl)quinazolin-2-yl)amino)cyclohexyl)acrylamide] |
| < 10 nM | < 10 nM | C=CC(=O)N[C@H]1CCOC[C@H]1Nc1ncc2cc(-c3c(Cl)c(OC)cc(OC)c3Cl)ccc2n1 [Compound 40, N-((3S,4S)-3-((6-(2,6-dichloro-3,5-dimethoxyphenyl)quinazolin-2-yl)amino)tetrahydro-2H-pyran-4-yl)acrylamide] |
| 100 to 1000 nM | 10 to 100 nM | C=CC(=O)N[C@H]1COCC[C@H]1Nc1ncc2cc(-c3c(Cl)c(OC)cc(OC)c3Cl)ccc2n1 [Compound 41] |
| 10 to 100 nM | 10 to 100 nM | C=CC(=O)N[C@H]1CCOC[C@H]1Nc1ncc2cc(-c3c(Cl)c(OC)cc(OC)c3Cl)cnc2n1 [Compound 44] |
| 10 to 100 nM | 10 to 100 nM | C=CC(=O)N[C@H]1CCC[C@H]1Nc1ncc2cc(-c3c(Cl)c(OC)cc(OC)c3Cl)cc(F)c2n1 [Compound 45] |
| < 10 nM | < 10 nM | C=CC(=O)N[C@H]1COC[C@H]1Nc1ncc2cc(-c3c(Cl)c(OC)cc(OC)c3Cl)cc(F)c2n1 [Compound 46] |
| < 10 nM | < 10 nM | C=CC(=O)N[C@H]1CCOC[C@H]1Nc1ncc2cc(-c3c(Cl)c(OC)cc(OC)c3Cl)c(F)cc2n1 [Compound 51] |
| < 10 nM | < 10 nM | C=CC(=O)N[C@H]1CCOC[C@H]1Nc1ncc2cc(-c3c(Cl)c(OC)cc(OC)c3Cl)cc(F)c2n1 [Compound 52] |
| < 10 nM | < 10 nM | C=CC(=O)N[C@H]1COC[C@H]1Nc1ncc2cc(-c3c(Cl)c(OC)cc(OC)c3Cl)cc(Cl)c2n1 [Compound 54] |
| < 10 nM | < 10 nM | C=CC(=O)N[C@H]1COC[C@H]1Nc1ncc2cc(-c3c(Cl)c(OC)cc(OC)c3Cl)c(Cl)cc2n1 [Compound 55] |
| < 10 nM | < 10 nM | C=CC(=O)N[C@H]1CN(C(C)=O)C[C@H]1Nc1ncc2cc(-c3c(Cl)c(OC)cc(OC)c3Cl)ccc2n1 [Compound 56, N-((3S,4R)-1-acetyl-4-((6-(2,6-dichloro-3,5-dimethoxyphenyl)quinazolin-2-yl)amino)pyrrolidin-3-yl)acrylamide] |
| 10 to 100 nM | < 10 nM | C=CC(=O)NC1CN(C(C)=O)CC1Nc1ncc2cc(-c3c(Cl)c(OC)cc(OC)c3Cl)ccc2n1 (stereo not drawn) [Compound 58] |
| 10 to 100 nM | < 10 nM | C=CC(=O)N[C@H]1CCC[C@H]1Nc1ncc2cc(-c3c(Cl)c(OC)cc(OC)c3Cl)c(=O)n(CC)c2n1 [Compound 62, N-((1S,2R)-2-((6-(2,6-dichloro-3,5-dimethoxyphenyl)-8-ethyl-7-oxo-7,8-dihydropyrido[2,3-d]pyrimidin-2-yl)amino)cyclopentyl)acrylamide] |

| IC50 [1] | IC50 [2] | Structure (SMILES) |
| --- | --- | --- |
| 100 to 1000 nM | 10 to 100 nM | C=CC(=O)N[C@H]1CCC[C@H]1Nc1ncc2nc(-c3c(Cl)c(OC)cc(OC)c3Cl)c(=O)n(CC)c2n1 [Compound 63] |
| < 10 nM | < 10 nM | C=CC(=O)N[C@H]1CCOC[C@H]1Nc1cc2c(cn1)cc(-c1c(Cl)c(OC)cc(OC)c1Cl)c(=O)n2C [Compound 64] |
|  | 100 to 1000 nM | C=CC(=O)N[C@H]1CCN(C(C)=O)C[C@H]1Nc1ncc2cc(-c3c(Cl)c(OC)cc(OC)c3Cl)ccc2n1 [Compound 70] |
|  | 10 to 100 nM | C=CC(=O)NC1CN(C(C)=O)CCC1Nc1ncc2cc(-c3c(Cl)c(OC)cc(OC)c3Cl)ccc2n1 (stereo not drawn) [Compound 71] |
|  | 10 to 100 nM | C=CC(=O)N[C@H]1C[C@@H](C(=O)OC)C[C@H]1Nc1ncc2cc(-c3c(Cl)c(OC)cc(OC)c3Cl)ccc2n1 [Compound 73] |
| 10 to 100 nM | < 10 nM | C=CC(=O)NC1CN(C(=O)CO)CC1Nc1ncc2cc(-c3c(Cl)c(OC)cc(OC)c3Cl)ccc2n1 (stereo not drawn) [Compound 75] |
| 10 to 100 nM | < 10 nM | C=CC(=O)N[C@H]1CN(C(=O)CO)C[C@H]1Nc1ncc2cc(-c3c(Cl)c(OC)cc(OC)c3Cl)ccc2n1 [Compound 76] |
| 10 to 100 nM | 10 to 100 nM | C=CC(=O)N[C@H]1CCCC[C@H]1Nc1ncc2cc(-c3c(Cl)c(OC)cc(OC)c3Cl)c(=O)n(CC)c2n1 [Compound 77] |
|  | 100 to 1000 nM | C=CC(=O)N[C@H]1CCCC[C@H]1Nc1ncc2nc(-c3c(Cl)c(OC)cc(OC)c3Cl)c(=O)n(CC)c2n1 [Compound 78] |
|  | 10 to 100 nM | C=CC(=O)NC1CCS(=O)(=O)CC1Nc1ncc2cc(-c3c(Cl)c(OC)cc(OC)c3Cl)ccc2n1 (stereo not drawn) [Compound 79] |
| < 10 nM | < 10 nM | C=CC(=O)N[C@H]1CN(C(=O)C2CC2)C[C@H]1Nc1ncc2cc(-c3c(Cl)c(OC)cc(OC)c3Cl)ccc2n1 [Compound 80] |
|  | 10 to 100 nM | C=CC(=O)N[C@H]1C[C@@H](C(=O)N(C)C)C[C@H]1Nc1ncc2cc(-c3c(Cl)c(OC)cc(OC)c3Cl)ccc2n1 [Compound 81, (1 S,3S,4R)-3-acrylamido-4-((6-(2,6-dichloro-3,5-dimethoxyphenyl)quinazolin-2-yl)amino)-N,N-dimethylcyclopentanecarboxamide] |
|  | > 1000 nM | C=CC(=O)N[C@H]1C[C@H](C(=O)N(C)C)C[C@H]1Nc1ncc2cc(-c3c(Cl)c(OC)cc(OC)c3Cl)ccc2n1 [Compound 82, (1R,3S,4R)-3-acrylamido-4-((6-(2,6-dichloro-3,5-dimethoxyphenyl)quinazolin-2-yl)amino)-N,N-dimethylcyclopentane-1-carboxamide] |
| < 10 nM | < 10 nM | C=CC(=O)N[C@H]1CN(C(=O)NCC)C[C@H]1Nc1ncc2cc(-c3c(Cl)c(OC)cc(OC)c3Cl)ccc2n1 [Compound 83, (3S,4R)-3-acrylamido-4-((6-(2,6-dichloro-3,5-dimethoxyphenyl)quinazolin-2-yl)amino)-N-ethylpyrrolidine-1-carboxamide] |
| 10 to 100 nM | < 10 nM | C=CC(=O)N[C@H]1CN(C(=O)OCC)C[C@H]1Nc1ncc2cc(-c3c(Cl)c(OC)cc(OC)c3Cl)ccc2n1 [Compound 84] |
| 10 to 100 nM | < 10 nM | C=CC(=O)NC1CN(C(=O)COC)CC1Nc1ncc2cc(-c3c(Cl)c(OC)cc(OC)c3Cl)ccc2n1 (stereo not drawn) [Compound 85] |
| < 10 nM | < 10 nM | C=CC(=O)N[C@H]1CN(C(=O)COC)C[C@H]1Nc1ncc2cc(-c3c(Cl)c(OC)cc(OC)c3Cl)ccc2n1 [Compound 86] |
| 10 to 100 nM | < 10 nM | C=CC(=O)NC1CN(C(=O)CN(C)C)CC1Nc1ncc2cc(-c3c(Cl)c(OC)cc(OC)c3Cl)ccc2n1 (stereo not drawn) [Compound 88] |
| 10 to 100 nM | < 10 nM | C=CC(=O)N[C@H]1CN(S(=O)(=O)CC)C[C@H]1Nc1ncc2cc(-c3c(Cl)c(OC)cc(OC)c3Cl)ccc2n1 [Compound 89] |
|  | > 1000 nM | C=CC(=O)N[C@H]1CCN(C(=O)OC(C)(C)C)C[C@H]1Nc1ncc2cc(-c3c(Cl)c(OC)cc(OC)c3Cl)ccc2n1 [Compound 92] |

Reference: patent US10875837B2, “Inhibitors of the fibroblast growth factor receptor” (BLUEPRINT MEDICINES CORPORATION, priority 2013, dated 2020)
